# Experiments:
# [1] = molecular target: T1, Full length human TBK1 (Homo sapiens, UniProt Q9UHD2); assay: Inhibition of TBK1 Enzyme (Caliper microfluidic assay); assay type: biochemical; conditions: 25 μM ATP, 60 min at RT; -log(IC50), IC50 molar; read-out: TBK1 Inhibition (pIC50) (converted)
# T1 construct: Full length human TBK1 with an N-terminal His-tag; His-tag (N); made in house; host or cells: Sf9 insect cells (baculovirus, pFastBac1)
# T1 sequence (Q9UHD2 1-729): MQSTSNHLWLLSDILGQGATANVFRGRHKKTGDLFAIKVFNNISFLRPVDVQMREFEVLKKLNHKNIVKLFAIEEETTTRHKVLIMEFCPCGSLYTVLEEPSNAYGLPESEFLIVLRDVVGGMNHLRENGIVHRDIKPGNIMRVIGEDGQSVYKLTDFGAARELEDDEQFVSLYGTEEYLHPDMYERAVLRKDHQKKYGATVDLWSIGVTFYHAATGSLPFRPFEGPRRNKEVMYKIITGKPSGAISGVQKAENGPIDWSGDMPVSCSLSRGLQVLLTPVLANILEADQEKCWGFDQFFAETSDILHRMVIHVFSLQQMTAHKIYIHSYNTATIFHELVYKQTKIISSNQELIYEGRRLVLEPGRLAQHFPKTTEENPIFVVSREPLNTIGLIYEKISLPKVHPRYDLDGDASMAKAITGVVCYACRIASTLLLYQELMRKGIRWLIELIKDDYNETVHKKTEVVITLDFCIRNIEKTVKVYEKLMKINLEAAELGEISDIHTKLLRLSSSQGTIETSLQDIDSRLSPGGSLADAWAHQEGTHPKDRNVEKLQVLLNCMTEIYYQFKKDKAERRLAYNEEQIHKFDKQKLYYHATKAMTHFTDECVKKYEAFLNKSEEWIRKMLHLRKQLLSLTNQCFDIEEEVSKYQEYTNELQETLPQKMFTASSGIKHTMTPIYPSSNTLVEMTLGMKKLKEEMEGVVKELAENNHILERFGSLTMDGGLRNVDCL
# Description: Full length human TBK1 with an N-terminal His-tag was cloned into the pFastBacl vector and was transfected into Sf9 cells. 72 hours later the virus was harvested and amplified through two additional rounds of infections. Then 400 ml of the resulting virus stock was used to infect 10L of Sf9 cells at a density of 2×10^6 cells/ml. Cell pellets were harvested 48 hours post infection and were lysed by freeze-thaw, homogenization and sonication in binding buffer (25 mM Tris pH7.6, 1 M NaCl, 10 mM imidazole, 0.5 mM TCEP) plus 0.1% Triton X-100 and complete protease inhibitor cocktail. The lysate was spun and the supernatant was purified with a HisTrap FF crude and a Superdex 200 pg column.
# TBK1 inhibition is determined using a 384 well plate format in buffer containing 20 mM Hepes, pH 7.4, 10 mM MgCl2, 1 mM EDTA, 0.01% Brij-L23, 1 mM DTT. Each test compound is prepared in DMSO using 2.5-fold serial dilutions for 11 data points, which are added to the buffer so that each dilution contains 1% DMSO. To each well is added 2 μL of 1 μm 5FAM-DRHDSGLDSMKDE-NH2 (in buffer), 2 μL of diluted test compound (1% DMSO in buffer), and 5 μL of 3 nM TBK1 and 25 μM ATP (in buffer). The reaction mixture is incubated at RT for 60 min, and quenched by adding 20 mM Hepes, pH 7.4, 10 mM MgCl2, 1 mM EDTA, 0.01% Brij-L23, 1 mM DTT+25 mM EDTA. To quantify the fluorescent-labeled substrate and product following reaction, the test plate is loaded on a Caliper LC-3000, which measures percent of conversion by microfluidic-based separation. Corresponding IC50 values are calculated by non-linear curve fitting of the compound concentrations and percent of inhibition to the standard IC50 equation and reported as pIC50, i.e., −log(IC50), where IC50 is the molar concentration.
# [2] = molecular target: T2, TBK1 (Homo sapiens, UniProt Q9UHD2); assay: Inhibition of TBK1 in Cells (TLR3 driven ISRE β-lactamase reporter assay); assay type: cell-based; conditions: poly IC-LMW stimulation 16 hrs; -log(EC50), EC50 molar; read-out: Inhibition of TBK1 in cells pEC50 (EC) (converted)
# T2 construct: host or cells: RA1-ISRE beta-lactamase reporter cells
# T2 sequence (Q9UHD2 1-729): T1 sequence (Q9UHD2 1-729)
# Description: TBK1 inhibition is determined using a TLR3 driven RA1-ISRE β-lacatamase reporter assay (Life Technologies). In the assay 50,000 cells/well are plated in black clear bottom 384 well plate. Each test compound is prepared in DMSO using 2.5-fold serial dilutions for 11 data points, which are then added to the media. Cells are stimulated with 0.15 mg/ml poly IC-LMW (Invivogen) for 16 hrs. Reporter activity is detected using the LiveBLAzer-FRET B/G CCF4-AM substrate (Life Technologies) and the plate is read using the Spectramax M5 instrument. Corresponding EC50 values are calculated by non-linear curve fitting of the compound concentrations and percent of inhibition to the standard EC50 equation and reported as pEC50, i.e., −log(EC50), where EC50 is the molar concentration.
IC50 [1],EC50 [2],SMILES
158 nM,25100 nM,"O=C(N[C@H]1CCOC1)c1cc(-c2ccc3nc(NC(=O)C4CC4)cn3c2)[nH]n1 [Example 53, (S)-5-(2-(cyclopropanecarboxamido)imidazo[1,2-a]pyridin-6-yl)-N-(tetrahydrofuran-3-yl)-1H-pyrazole-3-carboxamide]"
251 nM,20000 nM,"O=C(Nc1cn2cc(-c3csc(C(=O)N4CCOCC4)c3)ccc2n1)C1CC1 [Example 54, N-{6-[5-(morpholine-4-carbonyl)thiophen-3-yl]imidazo[1,2-a]pyridin-2-yl}cyclopropanecarboxamide]"
6.31 nM,275 nM,"O=C(NCC(F)F)c1cc(-c2ccc3nc(NC(=O)C4CC4)cn3c2)cs1 [Example 55, 4-(2-(cyclopropanecarboxamido)imidazo[1,2-a]pyridin-6-yl)-N-(2,2-difluoroethyl)thiophene-2-carboxamide]"
25.1 nM,631 nM,"CC(C)(NC(=O)c1cc(-c2ccc3nc(NC(=O)C4CC4)cn3c2)cs1)C(F)(F)F [Example 56, 4-(2-(cyclopropanecarboxamido)imidazo[1,2-a]pyridin-6-yl)-N-(1,1,1-trifluoro-2-methylpropan-2-yl)thiophene-2-carboxamide]"
10 nM,219 nM,"CC(F)(F)CNC(=O)c1cc(-c2ccc3nc(NC(=O)C4CC4)cn3c2)cs1 [Example 57, 4-(2-(cyclopropanecarboxamido)imidazo[1,2-a]pyridin-6-yl)-N-(2,2-difluoropropyl)thiophene-2-carboxamide]"
20 nM,240 nM,"CC(NC(=O)c1cc(-c2ccc3nc(NC(=O)C4CC4)cn3c2)cs1)C(F)(F)F (centres unmarked) [Example 59, 4-(2-(cyclopropanecarboxamido)imidazo[1,2-a]pyridin-6-yl)-N-(1,1,1-trifluoropropan-2-yl)thiophene-2-carboxamide]"
15.8 nM,234 nM,"O=C(Nc1cn2cc(-c3csc(C(=O)N4CCCC4C(F)(F)F)c3)ccc2n1)C1CC1 (centres unmarked) [Example 60, N-(6-(5-(2-(trifluoromethyl)pyrrolidine-1-carbonyl)thiophen-3-yl)imidazo[1,2-a]pyridin-2-yl)cyclopropanecarboxamide]"
39.8 nM,2630 nM,"O=C(Nc1cn2cc(-c3csc(C(=O)N4CCC[C@H]4C(F)(F)F)c3)ccc2n1)C1CC1 [Example 61, (S)-N-(6-(5-(2-(trifluoromethyl)pyrrolidine-1-carbonyl)thiophen-3-yl)imidazo[1,2-a]pyridin-2-yl)cyclopropanecarboxamide]"
3.98 nM,74.1 nM,"O=C(Nc1cn2cc(-c3csc(C(=O)N4CCC[C@@H]4C(F)(F)F)c3)ccc2n1)C1CC1 [Example 62, (R)-N-(6-(5-(2-(trifluoromethyl)pyrrolidine-1-carbonyl)thiophen-3-yl)imidazo[1,2-a]pyridin-2-yl)cyclopropanecarboxamide]"
15.8 nM,372 nM,"CC(C)CNC(=O)c1cc(-c2ccc3nc(NC(=O)C4CC4)cn3c2)cs1 [Example 63, 4-(2-(cyclopropanecarboxamido)imidazo[1,2-a]pyridin-6-yl)-N-isobutylthiophene-2-carboxamide]"
20 nM,676 nM,O=C(NCC1CC1)c1cc(-c2ccc3nc(NC(=O)C4CC4)cn3c2)cs1 [Example 65]
100 nM,2040 nM,"O=C(NC1CCOCC1)c1cc(-c2ccc3nc(NC(=O)C4CC4)cn3c2)cs1 [Example 66, 4-(2-(cyclopropanecarboxamido)imidazo[1,2-a]pyridin-6-yl)-N-(tetrahydro-2H-pyran-4-yl)thiophene-2-carboxamide]"
63.1 nM,1170 nM,"O=C(NC1CCCOC1)c1cc(-c2ccc3nc(NC(=O)C4CC4)cn3c2)cs1 (centres unmarked) [Example 67, 4-(2-(cyclopropanecarboxamido)imidazo[1,2-a]pyridin-6-yl)-N-(tetrahydro-2H-pyran-3-yl)thiophene-2-carboxamide]"
10 nM,1020 nM,"O=C(N[C@H]1CCCOC1)c1cc(-c2ccc3nc(NC(=O)C4CC4)cn3c2)cs1 [Example 68, (S)-4-(2-(cyclopropanecarboxamido)imidazo[1,2-a]pyridin-6-yl)-N-(tetrahydro-2H-pyran-3-yl)thiophene-2-carboxamide]"
100 nM,2880 nM,"O=C(N[C@@H]1CCCOC1)c1cc(-c2ccc3nc(NC(=O)C4CC4)cn3c2)cs1 [Example 69, (R)-4-(2-(cyclopropanecarboxamido)imidazo[1,2-a]pyridin-6-yl)-N-(tetrahydro-2H-pyran-3-yl)thiophene-2-carboxamide]"
31.6 nM,891 nM,"O=C(NC1CCOC1)c1cc(-c2ccc3nc(NC(=O)C4CC4)cn3c2)cs1 (centres unmarked) [Example 70, 4-(2-(cyclopropanecarboxamido)imidazo[1,2-a]pyridin-6-yl)-N-(tetrahydrofuran-3-yl)thiophene-2-carboxamide]"
20 nM,2400 nM,"O=C(N[C@@H]1CCOC1)c1cc(-c2ccc3nc(NC(=O)C4CC4)cn3c2)cs1 [Example 71, (R)-4-(2-(cyclopropanecarboxamido)imidazo[1,2-a]pyridin-6-yl)-N-(tetrahydrofuran-3-yl)thiophene-2-carboxamide]"
12.6 nM,1200 nM,"O=C(N[C@H]1CCOC1)c1cc(-c2ccc3nc(NC(=O)C4CC4)cn3c2)cs1 [Example 72, (S)-4-(2-(cyclopropanecarboxamido)imidazo[1,2-a]pyridin-6-yl)-N-(tetrahydrofuran-3-yl)thiophene-2-carboxamide]"
63.1 nM,1660 nM,"COCCNC(=O)c1cc(-c2ccc3nc(NC(=O)C4CC4)cn3c2)cs1 [Example 73, 4-(2-(cyclopropanecarboxamido)imidazo[1,2-a]pyridin-6-yl)-N-(2-methoxyethyl)thiophene-2-carboxamide]"
31.6 nM,1350 nM,"O=C(Nc1cn2cc(-c3csc(C(=O)N4CCC(F)(F)C4)c3)ccc2n1)C1CC1 [Example 74, N-(6-(5-(3,3-difluoropyrrolidine-1-carbonyl)thiophen-3-yl)imidazo[1,2-a]pyridin-2-yl)cyclopropanecarboxamide]"
50.1 nM,1700 nM,"O=C(NCC1CCOC1)c1cc(-c2ccc3nc(NC(=O)C4CC4)cn3c2)cs1 (centres unmarked) [Example 75, 4-(2-(cyclopropanecarboxamido)imidazo[1,2-a]pyridin-6-yl)-N-((tetrahydrofuran-3-yl)methyl)thiophene-2-carboxamide]"
15.8 nM,912 nM,"O=C(N[C@H]1CCCC[C@H]1O)c1cc(-c2ccc3nc(NC(=O)C4CC4)cn3c2)cs1 [Example 76, 4-(2-(cyclopropanecarboxamido)imidazo[1,2-a]pyridin-6-yl)-N-((1S,2R)-2-hydroxycyclohexyl)thiophene-2-carboxamide]"

# Source: patent US9598424B2 (Takeda Pharmaceutical Company Limited, priority 2014, dated 2017)
